Reference: patent US20110165267A1, “AGENTS FOR TREATING AND/OR AVOIDING FIRE BLIGHT” (LANXESS DISTRIBUTION GMBH, priority 2008, published 2011)
Where “and” joins values, the source holds several entries; their conditions need not be identical. Equal entries are not always repeated.

Test system: Erwinia amylovora 385
Assay: Reduction of the Erwinia amylovora population on apple blossom
Type: in vivo
Conditions: 0.06% streptomycin; apple blossom cv. Gala; 10^6 bacteria/ml; sprayed one hour after inoculation; 6 days at 20 to 23° C.; tests 4 to 6
Description: 2. Testing the Reduction of the Erwinia amylovora Population on Apple Blossom
Test plants: Apple blossom cv. Gala
Apple blossom cv. Gala were used in the following tests. The trees had not been treated with plant protection compositions. The flowers were placed by the petiole into a 10% strength sucrose solution and incubated in a humid chamber. 24 flowers were employed per treatment and repletition, and the test was repeated in each case three times.
Pathogen: Erwinia amylovora 385 was grown on agar plates. The apple blossom was inoculated with a suspension of 10^6 bacteria/ml.
Plant Treatment Composition:
1 part by weight of a solid formulation comprising
63.75% by weight of calcium formate
18.75% by weight of citric acid
16.73% by weight of calcium chloride
0.77% by weight of wetting agent and anti-dust agent were dissolved in 50 parts by weight (P 2%) of tap water and the solution was used for the following treatment. The pH was 4.1.
To carry out the treatments, the blossom was sprayed with the respective solution one hour after the inoculation, the chamber was sealed, and the contents were incubated for 6 days at 20 to 23° C.
(1-3) Water as the control
(4-6) 0.06% streptomycin (for comparison)

## [H]/N=C(/N)N[C@H]1[C@H](O)[C@@H](O)[C@H](O[C@@H]2O[C@@H](C)[C@](O)(C=O)[C@H]2O[C@@H]2O[C@@H](CO)[C@H](O)[C@@H](O)[C@@H]2NC)[C@@H](N/C(N)=N\[H])[C@@H]1O [streptomycin]
  Efficacy: 84.6% and 89.5% and 95.5%
